# Data as given in ChEMBL document CHEMBL4765362, “Thirty Years of HDAC Inhibitors: 2020 Insight and Hindsight” (J Med Chem, 2020).
# pIC50: −log10 of the molar value.
# Columns and labels:
# Homo sapiens [1] = organism: Homo sapiens; assay: Selectivity ratio of IC50 for HDAC1 (unknown origin) to IC50 for HDAC6 (unknown origin)
# Homo sapiens [2] = organism: Homo sapiens; assay: Selectivity ratio of IC50 for human HDAC4 expressed in Sf9 cells to IC50 for HDAC6 (unknown origin)
# Homo sapiens [3] = organism: Homo sapiens; assay: Selectivity ratio of IC50 for C-terminal His-tagged human HDAC9 (604 to 1066 residues) expressed in baculovirus infected sf9 cells to IC50 for HDAC6 (unknown origin)
# Homo sapiens [4] = organism: Homo sapiens; assay: Selectivity ratio of IC50 for human HDAC2 expressed in Sf9 cells to IC50 for HDAC6 (unknown origin)
# Homo sapiens [5] = organism: Homo sapiens; assay: Selectivity ratio of IC50 for human HDAC5 to IC50 for HDAC6 (unknown origin)
# Homo sapiens [6] = organism: Homo sapiens; assay: Selectivity ratio of IC50 for recombinant human C-terminal His-tagged HDAC8 expressed in baculovirus infected sf9 cells to IC50 for HDAC6 (unknown origin)
# Homo sapiens [7] = organism: Homo sapiens; assay: Selectivity ratio of IC50 for human C-terminal His-tagged HDAC3 (1 to 428 residues)/human N-terminal GST-tagged NcoR2 (395 to 489 residues) expressed in sf9 cells to IC50 for HDAC6 (unknown origin)
# [8] = target: T1, Protein deacetylase HDAC6 (Homo sapiens, UniProt Q9UBN7); assay: Inhibition of HDAC6 (unknown origin) using acetyl-lysine tripeptide substrate as substrate preincubated for 24 hrs followed substrate addition and shaken for 5 secs and measured over 30 mins
# T1 sequence (Q9UBN7 whole entry): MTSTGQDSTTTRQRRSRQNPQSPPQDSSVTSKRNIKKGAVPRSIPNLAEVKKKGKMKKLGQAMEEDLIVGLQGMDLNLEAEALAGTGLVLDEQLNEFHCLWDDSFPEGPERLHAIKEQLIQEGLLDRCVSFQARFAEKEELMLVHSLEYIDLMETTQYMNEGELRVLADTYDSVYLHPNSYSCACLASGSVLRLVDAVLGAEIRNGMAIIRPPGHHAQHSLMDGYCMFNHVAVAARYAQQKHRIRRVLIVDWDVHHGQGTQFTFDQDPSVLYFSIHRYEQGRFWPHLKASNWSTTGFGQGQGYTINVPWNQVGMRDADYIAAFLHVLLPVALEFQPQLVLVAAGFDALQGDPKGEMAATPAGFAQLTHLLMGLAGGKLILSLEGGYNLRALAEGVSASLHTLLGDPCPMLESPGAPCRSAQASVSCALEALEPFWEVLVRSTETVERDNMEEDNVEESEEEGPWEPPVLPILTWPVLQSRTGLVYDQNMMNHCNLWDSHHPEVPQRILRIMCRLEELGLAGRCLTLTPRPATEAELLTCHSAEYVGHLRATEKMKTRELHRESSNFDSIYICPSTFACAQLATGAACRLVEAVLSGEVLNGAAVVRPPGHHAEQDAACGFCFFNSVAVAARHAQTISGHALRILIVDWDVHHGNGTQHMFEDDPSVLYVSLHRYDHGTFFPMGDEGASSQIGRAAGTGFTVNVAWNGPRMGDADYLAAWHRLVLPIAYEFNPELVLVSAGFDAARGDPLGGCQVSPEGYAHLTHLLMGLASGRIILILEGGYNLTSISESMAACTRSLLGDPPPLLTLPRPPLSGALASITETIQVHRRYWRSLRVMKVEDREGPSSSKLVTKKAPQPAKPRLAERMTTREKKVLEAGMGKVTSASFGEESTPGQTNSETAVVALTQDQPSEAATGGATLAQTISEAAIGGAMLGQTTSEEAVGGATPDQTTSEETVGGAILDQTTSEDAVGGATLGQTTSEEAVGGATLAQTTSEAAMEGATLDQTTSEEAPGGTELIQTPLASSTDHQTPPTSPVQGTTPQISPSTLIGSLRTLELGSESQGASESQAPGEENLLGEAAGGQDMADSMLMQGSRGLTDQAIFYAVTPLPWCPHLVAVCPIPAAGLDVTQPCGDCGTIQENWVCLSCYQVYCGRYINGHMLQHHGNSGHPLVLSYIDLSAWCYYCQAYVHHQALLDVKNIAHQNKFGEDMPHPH
# Homo sapiens [9] = organism: Homo sapiens; assay: Selectivity ratio of IC50 for human N-terminal GST-tagged HDAC7 (518 to end residues) expressed in baculovirus infected sf9 cells to IC50 for HDAC6 (unknown origin)
# Histone deacetylase 11 = target: T2, Histone deacetylase 11 (Homo sapiens, UniProt Q96DB2); assay: Inhibition of human full length recombinant HDAC11 using p53 (379 to 382 residues) (RHKK(Ac)AMC) as substrate preincubated for 5 to 10 mins followed by substrate addition and measured after 2 hrs by fluorescence method
# T2 sequence (Q96DB2 whole entry): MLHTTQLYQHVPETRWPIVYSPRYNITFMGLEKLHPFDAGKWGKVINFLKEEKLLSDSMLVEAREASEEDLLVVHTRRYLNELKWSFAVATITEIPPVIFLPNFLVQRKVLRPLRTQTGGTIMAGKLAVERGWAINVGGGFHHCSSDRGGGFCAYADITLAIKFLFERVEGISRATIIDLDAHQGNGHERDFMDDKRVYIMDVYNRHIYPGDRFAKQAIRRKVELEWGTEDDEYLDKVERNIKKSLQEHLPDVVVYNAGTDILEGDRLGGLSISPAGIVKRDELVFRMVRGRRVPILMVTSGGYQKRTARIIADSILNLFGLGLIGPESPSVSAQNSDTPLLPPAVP
# Histone deacetylase 8 [10] = target: T3, Histone deacetylase 8 (Homo sapiens, UniProt Q9BY41); assay: Inhibition of human full length recombinant HDAC8 using p53 (379 to 382 residues) (RHK(Ac)K(Ac)AMC as substrate preincubated for 5 to 10 mins followed by substrate addition and measured after 2 hrs by fluorescence method
# T3 sequence (Q9BY41 whole entry): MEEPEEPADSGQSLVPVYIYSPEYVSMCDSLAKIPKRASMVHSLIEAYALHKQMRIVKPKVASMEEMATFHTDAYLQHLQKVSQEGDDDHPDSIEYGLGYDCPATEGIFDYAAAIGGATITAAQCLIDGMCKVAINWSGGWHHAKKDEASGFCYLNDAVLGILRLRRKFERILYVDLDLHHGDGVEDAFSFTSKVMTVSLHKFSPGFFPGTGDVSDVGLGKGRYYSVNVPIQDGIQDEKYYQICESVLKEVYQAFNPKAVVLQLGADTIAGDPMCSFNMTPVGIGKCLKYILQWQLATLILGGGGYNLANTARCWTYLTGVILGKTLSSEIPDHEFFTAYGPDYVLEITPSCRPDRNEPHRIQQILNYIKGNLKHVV
# Histone deacetylase 7 [11] = target: T4, Histone deacetylase 7 (Homo sapiens, UniProt Q8WUI4); assay: Inhibition of human full length recombinant HDAC7 using p53 (379 to 382 residues) Ac-LGK(TFA)-AMC as substrate preincubated for 5 to 10 mins followed by substrate addition and measured after 2 hrs by fluorescence method
# T4 sequence (Q8WUI4 whole entry): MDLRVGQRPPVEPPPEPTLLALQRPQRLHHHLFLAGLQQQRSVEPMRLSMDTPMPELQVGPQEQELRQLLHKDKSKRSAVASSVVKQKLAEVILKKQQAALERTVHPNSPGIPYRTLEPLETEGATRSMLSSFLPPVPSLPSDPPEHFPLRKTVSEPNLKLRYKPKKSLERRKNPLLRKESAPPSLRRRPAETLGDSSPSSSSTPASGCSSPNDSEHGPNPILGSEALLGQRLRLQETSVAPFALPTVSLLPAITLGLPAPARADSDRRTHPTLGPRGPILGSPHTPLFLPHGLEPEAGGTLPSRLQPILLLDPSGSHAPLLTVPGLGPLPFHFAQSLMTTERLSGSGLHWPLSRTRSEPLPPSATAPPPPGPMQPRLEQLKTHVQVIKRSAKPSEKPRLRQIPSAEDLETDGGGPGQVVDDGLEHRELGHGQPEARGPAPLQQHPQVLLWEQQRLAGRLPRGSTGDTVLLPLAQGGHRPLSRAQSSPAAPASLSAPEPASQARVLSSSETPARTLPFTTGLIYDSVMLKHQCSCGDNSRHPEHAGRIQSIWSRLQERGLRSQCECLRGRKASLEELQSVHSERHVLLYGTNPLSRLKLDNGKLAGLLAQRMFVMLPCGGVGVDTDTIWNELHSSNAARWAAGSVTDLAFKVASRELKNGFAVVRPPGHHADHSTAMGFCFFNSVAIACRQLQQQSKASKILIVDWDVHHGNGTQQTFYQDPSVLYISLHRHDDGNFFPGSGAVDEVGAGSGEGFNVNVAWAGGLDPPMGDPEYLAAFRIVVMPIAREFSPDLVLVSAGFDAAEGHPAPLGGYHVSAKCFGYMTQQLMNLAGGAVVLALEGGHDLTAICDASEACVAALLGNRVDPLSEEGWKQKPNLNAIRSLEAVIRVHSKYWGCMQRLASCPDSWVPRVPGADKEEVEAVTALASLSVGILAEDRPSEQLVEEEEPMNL
# [12] = target: T5, Polyamine deacetylase HDAC10 (Homo sapiens, UniProt Q969S8); assay: Inhibition of human full length recombinant HDAC10 using p53 (379 to 382 residues) (RHKK(Ac)AMC) as substrate preincubated for 5 to 10 mins followed by substrate addition and measured after 2 hrs by fluorescence method
# T5 sequence (Q969S8 whole entry): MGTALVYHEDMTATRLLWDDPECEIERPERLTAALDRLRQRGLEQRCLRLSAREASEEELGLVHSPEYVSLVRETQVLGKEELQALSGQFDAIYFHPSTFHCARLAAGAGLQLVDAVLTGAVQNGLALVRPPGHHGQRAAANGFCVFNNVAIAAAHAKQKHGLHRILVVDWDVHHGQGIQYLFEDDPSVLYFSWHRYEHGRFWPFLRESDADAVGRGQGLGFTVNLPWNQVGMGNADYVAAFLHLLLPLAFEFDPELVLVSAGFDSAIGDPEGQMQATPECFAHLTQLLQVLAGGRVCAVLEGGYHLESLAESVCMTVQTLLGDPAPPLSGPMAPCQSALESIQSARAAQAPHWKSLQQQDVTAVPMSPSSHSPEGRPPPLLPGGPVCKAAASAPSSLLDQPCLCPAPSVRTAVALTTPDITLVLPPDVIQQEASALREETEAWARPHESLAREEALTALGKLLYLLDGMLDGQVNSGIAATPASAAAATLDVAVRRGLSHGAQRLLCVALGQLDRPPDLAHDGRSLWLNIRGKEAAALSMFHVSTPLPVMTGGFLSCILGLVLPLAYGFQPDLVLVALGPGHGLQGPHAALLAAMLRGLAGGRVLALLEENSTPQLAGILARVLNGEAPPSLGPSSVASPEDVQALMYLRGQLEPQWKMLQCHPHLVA
# Histone deacetylase 5 [13] = target: T6, Histone deacetylase 5 (Homo sapiens, UniProt Q9UQL6); assay: Inhibition of human full length recombinant HDAC5 using p53 (379 to 382 residues) Ac-LGK(TFA)-AMC as substrate preincubated for 5 to 10 mins followed by substrate addition and measured after 2 hrs by fluorescence method
# Histone deacetylase 2 [14] = target: T7, Histone deacetylase 2 (Homo sapiens, UniProt Q92769)
# Histone deacetylase 9 [15] = target: T8, Histone deacetylase 9 (Homo sapiens, UniProt Q9UKV0); assay: Inhibition of human full length recombinant HDAC9 using p53 (379 to 382 residues) Ac-LGK(TFA)-AMC as substrate preincubated for 5 to 10 mins followed by substrate addition and measured after 2 hrs by fluorescence method
# [16] = target: Histone deacetylase 3/Nuclear receptor corepressor 2 (HDAC3/NCoR2) (Homo sapiens, UniProt O15379); assay: Inhibition of human full length recombinant HDAC3/ NcoR2 using p53 (379 to 382 residues) (RHKK(Ac)AMC) as substrate preincubated for 5 to 10 mins followed by substrate addition and measured after 2 hrs by fluorescence method; type: protein-complex assay
# Histone deacetylase 1 = Histone deacetylase 1 (Homo sapiens, UniProt Q13547); assay: Inhibition of HDAC1 (unknown origin) using carboxyfluorescein (FAM)-labeled acetylated peptide substrate preincubated for 3 hrs by microfluidic capillary electrophoresis
# Histone deacetylase 5 [17] = target: T6, Histone deacetylase 5; assay: Inhibition of human HDAC5 using carboxyfluorescein (FAM)-labeled acetylated peptide substrate by microfluidic capillary electrophoresis
# Histone deacetylase 2 [18] = target: T7, Histone deacetylase 2; assay: Inhibition of human HDAC2 expressed in Sf9 cells using carboxyfluorescein (FAM)-labeled acetylated peptide substrate preincubated for 3 hrs by microfluidic capillary electrophoresis
# Histone deacetylase 4 = Histone deacetylase 4 (Homo sapiens, UniProt P56524); assay: Inhibition of human HDAC4 expressed in baculovirus infected sf9 cells using carboxyfluorescein (FAM)-labeled acetylated peptide substrate by microfluidic capillary electrophoresis
# Histone deacetylase 8 [19] = target: T3, Histone deacetylase 8; assay: Inhibition of recombinant human C-terminal His-tagged HDAC8 expressed in baculovirus infected sf9 cells using carboxyfluorescein (FAM)-labeled acetylated peptide substrate by microfluidic capillary electrophoresis
# [20] = target: T1, Protein deacetylase HDAC6; assay: Inhibition of HDAC6 (unknown origin) using carboxyfluorescein (FAM)-labeled acetylated peptide substrate by microfluidic capillary electrophoresis
# Histone deacetylase 9 [21] = target: T8, Histone deacetylase 9; assay: Inhibition of C-terminal His-tagged human HDAC9 (604 to 1066 residues) expressed in baculovirus infected sf9 cells using carboxyfluorescein (FAM)-labeled acetylated peptide substrate by microfluidic capillary electrophoresis
# Histone deacetylase 7 [22] = target: T4, Histone deacetylase 7; assay: Inhibition of human N-terminal GST-tagged HDAC7 (518 to end residues) expressed in baculovirus infected sf9 cells using carboxyfluorescein (FAM)-labeled acetylated peptide substrate by microfluidic capillary electrophoresis
# T7 sequence (Q92769 whole entry, the tested form may be a part): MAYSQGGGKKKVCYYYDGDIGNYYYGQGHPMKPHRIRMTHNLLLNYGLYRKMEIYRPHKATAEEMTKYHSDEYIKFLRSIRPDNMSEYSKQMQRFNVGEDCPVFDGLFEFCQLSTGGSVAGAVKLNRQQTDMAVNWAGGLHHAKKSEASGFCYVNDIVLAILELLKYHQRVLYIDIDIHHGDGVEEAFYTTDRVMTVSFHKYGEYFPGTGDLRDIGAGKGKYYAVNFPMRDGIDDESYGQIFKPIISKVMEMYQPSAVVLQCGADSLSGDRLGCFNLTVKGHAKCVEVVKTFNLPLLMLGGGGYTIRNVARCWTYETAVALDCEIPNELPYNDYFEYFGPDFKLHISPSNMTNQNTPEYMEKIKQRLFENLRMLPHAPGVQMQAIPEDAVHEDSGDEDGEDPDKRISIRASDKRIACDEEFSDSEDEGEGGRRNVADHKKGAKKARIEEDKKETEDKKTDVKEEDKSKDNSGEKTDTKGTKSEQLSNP
# T6 sequence (Q9UQL6 whole entry, the tested form may be a part): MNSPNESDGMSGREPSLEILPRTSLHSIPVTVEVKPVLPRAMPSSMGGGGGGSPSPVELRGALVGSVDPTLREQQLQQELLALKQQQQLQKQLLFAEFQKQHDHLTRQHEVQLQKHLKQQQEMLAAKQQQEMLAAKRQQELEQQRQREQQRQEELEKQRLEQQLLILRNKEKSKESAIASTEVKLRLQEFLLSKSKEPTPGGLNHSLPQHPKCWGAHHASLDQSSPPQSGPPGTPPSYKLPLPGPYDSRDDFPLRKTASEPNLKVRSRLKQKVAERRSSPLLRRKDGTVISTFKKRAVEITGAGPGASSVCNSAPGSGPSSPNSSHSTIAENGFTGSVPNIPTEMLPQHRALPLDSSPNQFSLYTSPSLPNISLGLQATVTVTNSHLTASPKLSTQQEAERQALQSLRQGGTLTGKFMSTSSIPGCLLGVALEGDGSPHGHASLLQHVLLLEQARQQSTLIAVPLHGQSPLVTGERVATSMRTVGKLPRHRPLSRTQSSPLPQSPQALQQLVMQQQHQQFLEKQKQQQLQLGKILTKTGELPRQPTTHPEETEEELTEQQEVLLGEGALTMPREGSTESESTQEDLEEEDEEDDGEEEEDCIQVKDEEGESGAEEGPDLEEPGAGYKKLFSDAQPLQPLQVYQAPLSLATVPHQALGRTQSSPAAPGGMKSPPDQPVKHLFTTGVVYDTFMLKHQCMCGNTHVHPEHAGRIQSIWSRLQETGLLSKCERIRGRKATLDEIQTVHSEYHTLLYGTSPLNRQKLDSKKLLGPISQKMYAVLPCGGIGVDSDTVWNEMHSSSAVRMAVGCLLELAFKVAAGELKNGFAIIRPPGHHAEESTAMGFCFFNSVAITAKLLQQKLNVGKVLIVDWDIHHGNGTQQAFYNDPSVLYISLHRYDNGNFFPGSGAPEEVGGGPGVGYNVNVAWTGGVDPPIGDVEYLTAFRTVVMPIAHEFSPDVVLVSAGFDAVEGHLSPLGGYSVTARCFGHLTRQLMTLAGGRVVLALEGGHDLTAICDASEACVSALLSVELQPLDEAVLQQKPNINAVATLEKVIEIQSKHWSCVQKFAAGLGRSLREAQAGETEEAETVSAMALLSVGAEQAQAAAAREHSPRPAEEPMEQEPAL
# T8 sequence (Q9UKV0 whole entry, the tested form may be a part): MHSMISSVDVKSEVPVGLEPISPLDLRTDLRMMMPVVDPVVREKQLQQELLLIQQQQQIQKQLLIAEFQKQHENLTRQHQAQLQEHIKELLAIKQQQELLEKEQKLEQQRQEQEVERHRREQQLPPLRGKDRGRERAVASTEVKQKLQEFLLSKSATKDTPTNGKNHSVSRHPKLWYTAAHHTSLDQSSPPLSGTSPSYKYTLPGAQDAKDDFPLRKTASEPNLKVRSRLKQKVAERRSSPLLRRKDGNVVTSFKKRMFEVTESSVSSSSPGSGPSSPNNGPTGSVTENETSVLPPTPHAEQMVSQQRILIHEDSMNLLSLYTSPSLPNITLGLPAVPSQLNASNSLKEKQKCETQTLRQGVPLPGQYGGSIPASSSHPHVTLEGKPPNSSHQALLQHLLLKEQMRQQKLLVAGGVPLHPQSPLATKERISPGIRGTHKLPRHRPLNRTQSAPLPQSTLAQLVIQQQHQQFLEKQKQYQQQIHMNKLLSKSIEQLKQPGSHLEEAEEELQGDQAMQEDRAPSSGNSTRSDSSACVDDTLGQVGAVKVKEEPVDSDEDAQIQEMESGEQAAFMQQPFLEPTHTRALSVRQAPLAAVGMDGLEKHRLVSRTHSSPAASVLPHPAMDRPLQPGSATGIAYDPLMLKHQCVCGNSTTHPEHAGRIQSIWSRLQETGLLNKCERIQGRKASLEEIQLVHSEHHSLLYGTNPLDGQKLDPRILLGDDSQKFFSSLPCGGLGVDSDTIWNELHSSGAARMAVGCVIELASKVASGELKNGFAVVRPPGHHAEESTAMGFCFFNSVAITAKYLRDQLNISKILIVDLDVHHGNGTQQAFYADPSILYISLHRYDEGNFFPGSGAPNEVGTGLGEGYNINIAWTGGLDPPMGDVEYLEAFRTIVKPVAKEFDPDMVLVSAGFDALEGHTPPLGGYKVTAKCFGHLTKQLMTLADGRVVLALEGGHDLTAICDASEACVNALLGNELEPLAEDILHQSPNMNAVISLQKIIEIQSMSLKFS
# Histone deacetylase 4, sequence (P56524 whole entry): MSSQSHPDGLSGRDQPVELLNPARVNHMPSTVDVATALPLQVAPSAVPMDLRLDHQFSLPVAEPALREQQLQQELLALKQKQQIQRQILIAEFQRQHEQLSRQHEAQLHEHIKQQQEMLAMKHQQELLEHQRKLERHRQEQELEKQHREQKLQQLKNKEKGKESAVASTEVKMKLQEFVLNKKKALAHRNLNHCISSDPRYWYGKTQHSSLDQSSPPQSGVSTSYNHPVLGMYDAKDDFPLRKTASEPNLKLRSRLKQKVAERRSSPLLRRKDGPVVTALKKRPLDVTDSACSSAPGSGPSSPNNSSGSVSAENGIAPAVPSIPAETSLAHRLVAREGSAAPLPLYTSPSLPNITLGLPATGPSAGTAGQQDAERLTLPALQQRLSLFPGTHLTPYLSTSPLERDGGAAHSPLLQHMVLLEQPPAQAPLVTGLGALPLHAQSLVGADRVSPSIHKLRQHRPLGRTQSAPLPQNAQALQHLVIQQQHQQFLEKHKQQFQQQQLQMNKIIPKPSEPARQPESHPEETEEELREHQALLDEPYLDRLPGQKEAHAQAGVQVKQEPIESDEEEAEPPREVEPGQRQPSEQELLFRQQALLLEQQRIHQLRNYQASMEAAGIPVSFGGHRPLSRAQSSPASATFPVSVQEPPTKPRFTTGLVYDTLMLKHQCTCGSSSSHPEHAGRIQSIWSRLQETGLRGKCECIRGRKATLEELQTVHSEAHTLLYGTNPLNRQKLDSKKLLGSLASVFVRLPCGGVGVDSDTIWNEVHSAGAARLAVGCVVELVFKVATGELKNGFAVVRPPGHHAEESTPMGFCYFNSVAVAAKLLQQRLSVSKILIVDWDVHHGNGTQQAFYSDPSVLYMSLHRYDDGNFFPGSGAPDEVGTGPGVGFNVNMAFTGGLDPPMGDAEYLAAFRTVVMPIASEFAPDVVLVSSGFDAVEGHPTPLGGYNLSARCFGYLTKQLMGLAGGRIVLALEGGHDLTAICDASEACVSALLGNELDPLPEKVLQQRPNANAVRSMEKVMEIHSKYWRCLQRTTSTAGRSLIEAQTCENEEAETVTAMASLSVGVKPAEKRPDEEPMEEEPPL
# Histone deacetylase 1, sequence (Q13547 whole entry): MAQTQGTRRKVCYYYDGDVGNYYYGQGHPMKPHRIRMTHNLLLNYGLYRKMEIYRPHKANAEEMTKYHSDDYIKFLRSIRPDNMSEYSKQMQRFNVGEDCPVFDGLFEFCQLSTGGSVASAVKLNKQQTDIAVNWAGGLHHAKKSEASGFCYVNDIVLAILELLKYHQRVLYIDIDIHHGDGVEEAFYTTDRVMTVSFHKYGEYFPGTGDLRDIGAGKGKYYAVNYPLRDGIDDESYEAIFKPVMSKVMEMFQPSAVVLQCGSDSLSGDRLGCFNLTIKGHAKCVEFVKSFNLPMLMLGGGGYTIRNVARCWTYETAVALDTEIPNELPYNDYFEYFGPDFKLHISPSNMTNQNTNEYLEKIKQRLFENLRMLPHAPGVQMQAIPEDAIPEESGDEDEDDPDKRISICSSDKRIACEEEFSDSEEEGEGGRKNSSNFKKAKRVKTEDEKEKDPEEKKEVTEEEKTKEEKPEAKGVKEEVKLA
compound,measurement,setting,value
O=C(NO)c1cnc(C2(c3ccccc3)CCC(F)(F)CC2)nc1,Ratio IC50,Homo sapiens [1],> 250
same,Ratio IC50,Homo sapiens [2],> 250
same,Ratio IC50,Homo sapiens [3],> 250
same,Ratio IC50,Homo sapiens [4],> 250
same,Ratio IC50,Homo sapiens [5],> 250
same,Ratio IC50,Homo sapiens [6],> 250
same,Ratio IC50,Homo sapiens [7],> 250
same,pIC50,[8],8.52
same,Ratio IC50,Homo sapiens [9],> 250
O=C(NO)c1ccc(CN2CCCc3cc(Cl)ccc32)cc1,pIC50,Histone deacetylase 11,5.22
same,pIC50,Histone deacetylase 8 [10],5.40
same,pIC50,Histone deacetylase 7 [11],5.30
same,pIC50,[12],4.59
same,pIC50,Histone deacetylase 5 [13],5.40
same,pIC50,Histone deacetylase 2 [14],4.48
same,pIC50,Histone deacetylase 9 [15],5.40
same,pIC50,[16],4.52
CC(=O)Nc1ccc(C(=O)Nc2ccc(F)cc2N)cc1,pIC50,Histone deacetylase 1,6.00
same,pIC50,Histone deacetylase 5 [17],< 4.52
same,pIC50,Histone deacetylase 2 [18],6.00
same,pIC50,Histone deacetylase 4,< 4.52
same,pIC50,Histone deacetylase 8 [19],< 4.52
same,pIC50,[20],< 4.52
same,pIC50,Histone deacetylase 9 [21],< 4.52
same,pIC50,Histone deacetylase 7 [22],< 4.52
